# Assay results as given in the CATMoS acute toxicity set (Mansouri et al. 2021).
# Values joined by “and” are separate entries in the source; they are usually repeats but may differ in a detail not shown here. Equal values may be shown once.
# Assay: rat acute oral toxicity
# Details: in vivo
# From the text: […]The data set underlying the modeling effort for this project was initially compiled by NICEATM and U.S. EPA’s CCTE. Briefly, LD50 data were collected from rat acute oral systemic toxicity tests, including limit tests, ranges/confidence intervals, and discrete LD50 values. The full data set included 21,200 LD50 entries for 15,688 substances. […] Data were reviewed to ensure that LD50 values with obvious errors in the extracted data such as unit conversion errors (e.g., comma and decimal separator misplacements) were either fixed or removed. After this review, 16,209 LD50 values remained. Many of the chemicals represented had multiple LD50 entries, requiring that a single representative value per Chemical Abstracts Service Registry Number (CASRN) identifier be defined to facilitate modeling efforts. Based on ATWG feedback and to define the representative LD50 as a protective value while accounting for the distribution across multiple LD50s, the median of the lowest quartile was computed using only discrete LD50 values (omitting limit test data and range and confidence interval data). A detailed summary of the data compilation is available online on the NICEATM webpage dedicated to the collaborative modeling project (NTP 2020).
# […][…] For categorical designations, limit test and range/confidence interval LD50 data were integrated wherever possible. As such, the number of chemicals with end point values/calls varies across the modeling end points (Table 3) based on whether chemicals had representative LD50 values and/or other data. If a chemical had both, the representative value was used to determine categorical calls rather than limit test data. Some data were useable only for certain end points and categories depending on the thresholds. For example, ranges that spanned multiple hazard categories were considered only for the binary (very toxic/nontoxic) end points and omitted from rendering a determination for hazard category assignment.
# […]The final data set comprising 11,992 chemicals was split into training and evaluation sets […], respectively. This process was performed semirandomly by ordering chemicals based on the five end points (categorical and continuous LD50 values) and partitioning every fourth record into the evaluation set accordingly. This approach was taken to ensure an equivalent distribution of the LD50 values and the different hazard categories between the training and the evaluation sets without supervised sampling of the chemicals based on structures (Figure 1A). The sources of the chemical structures were also kept equivalent between the two sets, with chemical structures obtained from DSSTox, being the highest quality, representing over 75% of each set (Figure 1B).
row,Compound,LD50
1,O=[N+]([O-])c1ccc(Oc2ccc(Cl)cc2Cl)cc1,2410 mg/kg
2,CCC(C)(C#N)/N=N/C(C)(C#N)CC (stereo not drawn),333 mg/kg
3,Cc1[nH]c(=O)n(C(C)(C)C)c(=O)c1Cl,1700 mg/kg
4,N=C(N)N,475 mg/kg and 730 mg/kg
5,CCCCCCCCCCCCCCCC[N+](C)(C)C,450 mg/kg
6,Cc1ccccc1NC(=N)Nc1ccccc1C,70.7 mg/kg
7,O=C(O)c1cccc(C(=O)O)c1,10400 mg/kg
8,CCCOCC(C)O (stereo not drawn),2490 mg/kg
9,CNCCO,1390 mg/kg
10,CCCCCCCCC=CCCCCCCCC1=NCCN1CCO,1000 mg/kg
11,Cn1sccc1=O,105 mg/kg
12,CCN(CC)C(=O)c1cccc(C)c1,1950 mg/kg
13,CC/C=C\C#N,198 mg/kg
14,O=C(O)c1ccccc1O,930 mg/kg and 891 mg/kg
15,Cc1ccc(O)cc1,207 mg/kg
16,CC1OC(C)OC(C)O1 (stereo not drawn),1530 mg/kg
17,CC(O)COC(C)CO (stereo not drawn),2280 mg/kg
18,O=C1C(Cl)=C(Cl)C(=O)C(Cl)=C1Cl,4000 mg/kg
19,CCC(C)c1cc([N+](=O)[O-])cc([N+](=O)[O-])c1OC(=O)C=C(C)C (stereo not drawn),58 mg/kg
20,Cc1ccc([N+](=O)[O-])cc1,2050 mg/kg
21,O=C1CCCC(=O)O1,540 mg/kg
22,O=C(C(Cl)(Cl)Cl)C(Cl)(Cl)Cl,240 mg/kg
23,Cc1c(Cl)cccc1[N+](=O)[O-],2320 mg/kg

row,Compound,LD50
1,OCC#CCO,104 mg/kg
2,CC(C)(C)C(=O)O,900 mg/kg
3,CCC(C)=NO,930 mg/kg
4,CCON=C(CC)C1=C(O)CC(c2c(C)cc(C)cc2C)CC1=O (stereo not drawn),934 mg/kg
5,O=S(=O)(C(Cl)(Cl)Cl)C(Cl)(Cl)Cl,535 mg/kg
6,ClC1C(Cl)C(Cl)C(Cl)C(Cl)C1Cl (stereo not drawn),88 mg/kg and 100 mg/kg
7,ClCC(Cl)CCl,136 mg/kg
8,C1CCC2CCCCC2C1 (stereo not drawn),4170 mg/kg
9,CC(C)(C)c1ccc(O)c(O)c1,815 mg/kg
10,c1ccc(OCC2CO2)cc1 (stereo not drawn),2500 mg/kg
11,CC(Cl)(Cl)C(=O)O,6940 mg/kg
12,COP(=S)(OC)SCC(=O)N(C)C=O,218 mg/kg
13,Cc1ccc(S(C)(=O)=O)cc1[N+](=O)[O-],933 mg/kg
14,C=COCCCl,210 mg/kg
15,CC1=C(C)S(=O)(=O)CCS1(=O)=O,500 mg/kg
16,CCCCCCCCCCCCCCCCCC[N+](C)(C)CCCCCCCCCCCCCCCCCC,11300 mg/kg
17,N#CCO,8 mg/kg
18,C1CO1,72 mg/kg
19,N#Cc1ccc(Cl)c(Cl)c1,200 mg/kg
20,CC(C)c1nn(C(=O)NC(C)(C)C)c(=O)n1N,1020 mg/kg
21,COP(=S)(OC)Oc1ccc([N+](=O)[O-])cc1Cl,284 mg/kg
22,CCCCC(=O)O,1060 mg/kg
23,Cc1ccc(Nc2ccc(Nc3ccc(C)cc3)c3c2C(=O)c2ccccc2C3=O)cc1,3000 mg/kg

row,Compound,LD50
1,CCCCSP(SCCCC)SCCCC,910 mg/kg
2,CCCCC=O,4580 mg/kg
3,C=CCN=C=S,112 mg/kg
4,CCO[Si](CCCSC#N)(OCC)OCC,986 mg/kg
5,CCO,7230 mg/kg
6,S=c1sc2nc3ccccc3nc2s1,1800 mg/kg
7,CCOC(=O)CCl,50 mg/kg
8,C=C[Si](ON=C(C)CC)(ON=C(C)CC)ON=C(C)CC,3520 mg/kg
9,Sc1ccccc1,46 mg/kg
10,CC(C)OC(=O)COc1ccc(Cl)cc1Cl,375 mg/kg
11,O=Cc1ccncc1,2170 mg/kg
12,CCCCC(CC)COS(=O)(=O)O (stereo not drawn),2840 mg/kg
13,COC(=O)CCS,182 mg/kg
14,CC(C)(C)CC(C)(C)N,218 mg/kg
15,C=CC(=O)OCCOC,404 mg/kg
16,OC1CCCCC1,1400 mg/kg
17,CC(C)(C)CC(C)(C)c1ccc(OCCO)cc1,1800 mg/kg
18,O=Cc1ccc(-c2ccccc2)cc1,1000 mg/kg
19,CCOP(=O)(OCC)OP(=O)(OCC)OCC,0.5 mg/kg
20,C#CC(C)(C)O,1420 mg/kg
21,Cc1ccccc1NC(=N)NC(=N)N,800 mg/kg
22,Oc1cc(Cl)ccc1Cl,580 mg/kg
